# From ChEMBL document CHEMBL1201862, “PubChem BioAssay data set” (2004)
# The source made the active and inactive calls.
# Columns and labels:
# [1] = biological target: T1, High affinity choline transporter 1 (Homo sapiens, UniProt Q9GZV3); experiment: CHT inhibitors, dose response, cell-based, 5-point CRC, membrane potential dye (AID 504840); format: functional
# T1 sequence (Q9GZV3 whole entry): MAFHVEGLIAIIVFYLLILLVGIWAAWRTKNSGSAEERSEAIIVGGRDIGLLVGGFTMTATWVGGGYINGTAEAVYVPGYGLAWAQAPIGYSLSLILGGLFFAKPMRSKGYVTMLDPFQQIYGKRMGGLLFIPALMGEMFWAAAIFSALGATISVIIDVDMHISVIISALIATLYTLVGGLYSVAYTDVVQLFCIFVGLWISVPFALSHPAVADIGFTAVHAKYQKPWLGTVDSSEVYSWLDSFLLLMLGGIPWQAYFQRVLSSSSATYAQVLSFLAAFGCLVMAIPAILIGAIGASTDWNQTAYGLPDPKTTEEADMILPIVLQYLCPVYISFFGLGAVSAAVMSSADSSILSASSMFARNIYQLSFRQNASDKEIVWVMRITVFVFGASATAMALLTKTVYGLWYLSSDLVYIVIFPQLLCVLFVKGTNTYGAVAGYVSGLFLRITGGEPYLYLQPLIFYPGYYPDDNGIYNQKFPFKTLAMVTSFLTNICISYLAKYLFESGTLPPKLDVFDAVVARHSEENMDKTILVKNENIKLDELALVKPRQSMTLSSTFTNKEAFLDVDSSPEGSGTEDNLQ
# [2] = biological target: T1, High affinity choline transporter 1; experiment: CHT inhibitors, dose response, cell-based, 10-point CRC, membrane potential dye (AID 588401); format: functional;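 also: membrane potential dye fluorescence of choline-evoked depolarization via CHT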
# [3] = Vero cell cytotoxicity, cytotoxicity control for M. tuberculosis inhibitor project, purified and synthesized samples, set 8 (AID 602431); format: functional; details: Mycobacterium tuberculosis
# [4] = biological target: Tyrosine-protein kinase receptor TYRO3 (Homo sapiens, UniProt Q06418); format: functional;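 also: TYRO3 value obtained as one member of a kinome-wide profiling panel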
# Tyrosine-protein kinase receptor TYRO3, sequence (Q06418 whole entry): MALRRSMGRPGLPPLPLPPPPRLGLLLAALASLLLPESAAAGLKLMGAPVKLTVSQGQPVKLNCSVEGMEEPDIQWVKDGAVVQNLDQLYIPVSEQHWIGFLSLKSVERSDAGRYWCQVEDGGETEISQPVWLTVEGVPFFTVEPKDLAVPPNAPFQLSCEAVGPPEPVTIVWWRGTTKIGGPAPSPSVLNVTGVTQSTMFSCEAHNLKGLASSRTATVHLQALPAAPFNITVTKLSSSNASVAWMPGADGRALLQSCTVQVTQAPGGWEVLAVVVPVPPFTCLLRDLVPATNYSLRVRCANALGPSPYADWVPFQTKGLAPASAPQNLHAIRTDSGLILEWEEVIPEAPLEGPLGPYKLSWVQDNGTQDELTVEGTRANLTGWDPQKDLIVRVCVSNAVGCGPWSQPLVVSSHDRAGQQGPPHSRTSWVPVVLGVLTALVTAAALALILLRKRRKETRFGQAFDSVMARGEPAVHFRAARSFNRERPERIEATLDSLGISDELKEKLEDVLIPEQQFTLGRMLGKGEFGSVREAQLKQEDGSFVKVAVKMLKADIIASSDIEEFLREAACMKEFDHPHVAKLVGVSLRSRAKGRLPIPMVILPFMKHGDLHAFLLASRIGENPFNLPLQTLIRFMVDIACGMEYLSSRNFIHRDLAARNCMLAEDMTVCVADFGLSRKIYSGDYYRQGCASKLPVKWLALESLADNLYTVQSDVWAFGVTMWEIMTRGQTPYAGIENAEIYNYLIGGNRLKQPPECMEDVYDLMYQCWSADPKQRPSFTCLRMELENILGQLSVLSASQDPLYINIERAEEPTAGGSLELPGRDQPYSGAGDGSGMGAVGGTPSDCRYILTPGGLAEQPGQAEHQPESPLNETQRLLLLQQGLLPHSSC
# [5] = biological target: Cyclin-dependent kinase 8 (Homo sapiens, UniProt P49336); experiment: Navigating the Kinome. Panel member name: CDK8; format: functional
# Cyclin-dependent kinase 8, sequence (P49336 whole entry): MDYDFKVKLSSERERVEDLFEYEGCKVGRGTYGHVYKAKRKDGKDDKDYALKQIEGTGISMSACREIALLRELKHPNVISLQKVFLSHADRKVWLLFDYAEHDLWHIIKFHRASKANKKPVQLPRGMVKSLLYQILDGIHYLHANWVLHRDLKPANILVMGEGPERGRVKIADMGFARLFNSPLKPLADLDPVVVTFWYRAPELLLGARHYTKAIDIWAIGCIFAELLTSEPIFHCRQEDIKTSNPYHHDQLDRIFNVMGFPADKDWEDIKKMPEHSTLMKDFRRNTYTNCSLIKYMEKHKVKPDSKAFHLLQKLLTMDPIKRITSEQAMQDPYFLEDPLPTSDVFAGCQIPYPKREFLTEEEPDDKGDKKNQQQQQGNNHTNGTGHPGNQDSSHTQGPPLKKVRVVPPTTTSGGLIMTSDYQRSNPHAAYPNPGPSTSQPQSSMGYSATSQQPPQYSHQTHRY
# [6] = biological target: T2, Apoptotic protease-activating factor 1 (Homo sapiens, UniProt O14727); experiment: SAR analysis of small molecule Activators of Apaf-1 in a Fluorescent assay.; format: functional; details: read-out: EC50_Mean;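 also: caspase-3 cleavage of fluorogenic Rh110 DEVD substrate downstream of apoptosome activation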
# T2 sequence (O14727 whole entry): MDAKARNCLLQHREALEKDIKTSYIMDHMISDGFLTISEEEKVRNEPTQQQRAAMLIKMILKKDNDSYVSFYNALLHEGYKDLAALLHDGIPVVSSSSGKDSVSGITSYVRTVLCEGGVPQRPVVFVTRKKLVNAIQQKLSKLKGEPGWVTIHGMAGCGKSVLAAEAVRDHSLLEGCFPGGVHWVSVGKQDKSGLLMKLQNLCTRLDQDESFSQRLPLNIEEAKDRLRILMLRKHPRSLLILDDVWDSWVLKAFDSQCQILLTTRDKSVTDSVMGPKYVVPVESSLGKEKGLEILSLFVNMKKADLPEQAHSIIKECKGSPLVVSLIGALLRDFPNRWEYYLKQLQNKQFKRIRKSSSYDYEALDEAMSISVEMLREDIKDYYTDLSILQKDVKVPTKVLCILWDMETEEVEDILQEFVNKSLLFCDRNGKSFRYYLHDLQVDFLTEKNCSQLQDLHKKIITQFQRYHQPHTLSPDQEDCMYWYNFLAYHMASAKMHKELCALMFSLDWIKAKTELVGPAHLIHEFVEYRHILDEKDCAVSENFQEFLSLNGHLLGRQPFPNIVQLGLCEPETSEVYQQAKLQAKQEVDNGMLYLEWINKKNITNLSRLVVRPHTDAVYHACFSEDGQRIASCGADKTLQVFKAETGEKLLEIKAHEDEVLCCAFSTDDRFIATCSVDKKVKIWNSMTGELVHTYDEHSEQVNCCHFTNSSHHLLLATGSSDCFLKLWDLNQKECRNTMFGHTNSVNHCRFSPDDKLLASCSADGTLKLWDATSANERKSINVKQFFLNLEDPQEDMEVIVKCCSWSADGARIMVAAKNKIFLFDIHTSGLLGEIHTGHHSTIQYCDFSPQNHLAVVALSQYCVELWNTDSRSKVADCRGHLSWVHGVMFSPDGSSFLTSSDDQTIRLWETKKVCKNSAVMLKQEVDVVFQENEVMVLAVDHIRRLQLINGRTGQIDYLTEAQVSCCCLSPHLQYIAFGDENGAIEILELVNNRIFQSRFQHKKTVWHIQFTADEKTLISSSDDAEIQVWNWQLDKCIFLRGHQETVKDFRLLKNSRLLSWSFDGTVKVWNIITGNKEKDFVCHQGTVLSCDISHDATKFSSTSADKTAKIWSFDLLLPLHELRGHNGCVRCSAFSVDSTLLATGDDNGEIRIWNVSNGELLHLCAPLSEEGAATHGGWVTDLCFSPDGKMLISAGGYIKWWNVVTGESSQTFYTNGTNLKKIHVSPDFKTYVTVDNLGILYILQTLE
# [7] = inhibitors of firefly luciferase expression or activity, dose response, H4 neuroglioma cells, luminescence (AID 1990); format: functional, cell-based
# [8] = luciferase reporter signal reduction – luminescence, H4-C neuroglioblastoma cells, dose response (AID 2458); format: functional, cell-based;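 also: H4 neuroglioblastoma cells stably carrying a luciferase reporter gene fusion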
# cells = format: functional, cell-based
# [9] = inhibitors of SNCA 5'UTR-driven reporter translation, confirmation, H4 neuroglioma cells, luminescence (AID 1988); format: functional, cell-based
# [10] = cytotoxicity in HPDE-C7 cells, cell-based, fluorescence, HTS (AID 430); format: functional; details: Homo sapiens
# [11] = cytotoxicity in KRAS-transformed pancreatic duct cells, primary screen, cell-based, fluorescence, HTS (AID 431); format: functional; details: Homo sapiens;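 also: cell line used: HPDE-C7K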
# [12] = inhibitors of SNCA 5'UTR-driven translation, confirmation, luminescence, H4 neuroglioblastoma cells, dose confirmation (AID 2454); format: functional, cell-based;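 also: H4 neuroglioblastoma cells carrying an alpha-synuclein 5'UTR luciferase reporter; potency for inhibition of the luciferase signal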
# [13] = biological target: T3, RNA-binding protein pos-1 (Caenorhabditis elegans, UniProt G5EF15); experiment: inhibitors of POS-1/mex-3 RNA binding, dose response, biochemical, fluorescence polarization (AID 1964);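 also: purified POS-1 fused to maltose binding protein made in E. coli; potency of compounds blocking POS-1 binding to fluorescent RNA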
# T3 sequence (G5EF15 whole entry): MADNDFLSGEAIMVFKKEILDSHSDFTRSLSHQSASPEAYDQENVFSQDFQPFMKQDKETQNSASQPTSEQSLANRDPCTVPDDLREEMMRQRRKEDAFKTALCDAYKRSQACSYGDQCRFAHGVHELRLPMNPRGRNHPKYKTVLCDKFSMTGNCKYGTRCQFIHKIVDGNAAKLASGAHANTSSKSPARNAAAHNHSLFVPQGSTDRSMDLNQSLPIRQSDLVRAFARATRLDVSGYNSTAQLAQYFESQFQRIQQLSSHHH
# [14] = biological target: T4, Zinc finger protein mex-5 (Caenorhabditis elegans, UniProt Q9XUB2); experiment: MEX-5/TCR-2 RNA interaction inhibitors, dose response, biochemical, C. elegans, fluorescence polarization (AID 1960)
# T4 sequence (Q9XUB2 whole entry): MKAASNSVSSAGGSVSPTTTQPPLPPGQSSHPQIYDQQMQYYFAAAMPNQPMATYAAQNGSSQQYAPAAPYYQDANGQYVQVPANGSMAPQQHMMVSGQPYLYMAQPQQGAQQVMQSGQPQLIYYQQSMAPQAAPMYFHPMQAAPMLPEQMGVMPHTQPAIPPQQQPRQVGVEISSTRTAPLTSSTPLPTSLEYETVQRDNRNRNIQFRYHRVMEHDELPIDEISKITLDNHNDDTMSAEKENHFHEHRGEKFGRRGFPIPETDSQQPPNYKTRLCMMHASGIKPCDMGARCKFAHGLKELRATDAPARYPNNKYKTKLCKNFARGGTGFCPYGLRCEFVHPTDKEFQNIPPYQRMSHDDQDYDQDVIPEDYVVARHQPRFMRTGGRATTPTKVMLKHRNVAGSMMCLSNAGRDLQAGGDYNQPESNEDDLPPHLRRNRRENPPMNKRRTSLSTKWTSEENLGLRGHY
# [15] = biological target: T5, Mannose-6-phosphate isomerase (Homo sapiens, UniProt P34949); experiment: human PMI inhibitors, high substrate, primary screen, biochemical, fluorescence intensity, high mannose 6-phosphate (AID 1220)
# T5 sequence (P34949 whole entry): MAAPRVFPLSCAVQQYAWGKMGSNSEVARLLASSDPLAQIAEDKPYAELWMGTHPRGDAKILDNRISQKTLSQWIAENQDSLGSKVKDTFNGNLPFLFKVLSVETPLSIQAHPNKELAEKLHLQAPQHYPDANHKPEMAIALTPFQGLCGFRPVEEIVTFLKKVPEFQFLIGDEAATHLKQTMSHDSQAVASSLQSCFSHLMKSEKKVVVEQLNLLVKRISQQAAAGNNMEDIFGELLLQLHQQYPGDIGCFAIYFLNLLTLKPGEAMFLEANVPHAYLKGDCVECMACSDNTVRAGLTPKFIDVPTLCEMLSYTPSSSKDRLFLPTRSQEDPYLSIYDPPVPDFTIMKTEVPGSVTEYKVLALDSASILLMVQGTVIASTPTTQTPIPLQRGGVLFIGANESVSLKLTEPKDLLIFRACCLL
# [16] = biological target: Protein disulfide-isomerase (Homo sapiens, UniProt P07237); experiment: PDI inhibitors, insulin aggregation turbidity, dose response, biochemical, absorbance, cherry-picked samples (AID 602350); format: functional
# Protein disulfide-isomerase, sequence (P07237 whole entry): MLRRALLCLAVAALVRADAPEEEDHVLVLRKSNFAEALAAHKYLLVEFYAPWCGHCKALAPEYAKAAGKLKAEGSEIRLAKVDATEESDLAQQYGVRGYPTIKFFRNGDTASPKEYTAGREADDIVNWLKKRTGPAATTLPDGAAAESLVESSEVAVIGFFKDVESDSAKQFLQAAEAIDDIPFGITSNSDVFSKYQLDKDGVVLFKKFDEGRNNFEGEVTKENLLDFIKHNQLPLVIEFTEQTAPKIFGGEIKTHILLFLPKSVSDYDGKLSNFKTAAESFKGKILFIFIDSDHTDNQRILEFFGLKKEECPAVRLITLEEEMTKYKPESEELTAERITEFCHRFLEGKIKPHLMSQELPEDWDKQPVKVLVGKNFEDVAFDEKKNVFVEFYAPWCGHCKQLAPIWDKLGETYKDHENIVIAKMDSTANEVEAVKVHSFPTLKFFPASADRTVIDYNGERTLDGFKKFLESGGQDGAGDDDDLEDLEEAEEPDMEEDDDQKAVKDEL
# [17] = biological target: T6, RNA-editing ligase 1, mitochondrial (Trypanosoma brucei brucei, UniProt P86926); experiment: TbREL1 ligase inhibitors, dose response, biochemical, fluorescence, Trypanosoma brucei (AID 1117295); format: functional
# T6 sequence (P86926 whole entry): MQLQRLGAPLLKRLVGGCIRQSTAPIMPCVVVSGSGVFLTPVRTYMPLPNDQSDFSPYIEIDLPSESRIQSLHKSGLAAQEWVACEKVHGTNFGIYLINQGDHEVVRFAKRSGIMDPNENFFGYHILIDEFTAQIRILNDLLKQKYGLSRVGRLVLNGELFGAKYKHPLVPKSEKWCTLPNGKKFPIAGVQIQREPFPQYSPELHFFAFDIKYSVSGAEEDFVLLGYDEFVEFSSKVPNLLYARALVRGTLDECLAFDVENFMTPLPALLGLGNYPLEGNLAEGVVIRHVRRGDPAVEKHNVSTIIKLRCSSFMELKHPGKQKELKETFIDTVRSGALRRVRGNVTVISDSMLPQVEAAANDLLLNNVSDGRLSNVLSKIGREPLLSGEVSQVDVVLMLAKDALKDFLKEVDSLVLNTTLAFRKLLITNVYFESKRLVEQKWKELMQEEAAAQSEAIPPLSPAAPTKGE
structure (smiles),measurement,setting,value
CCCCN(CCCC)CCNC(=O)c1cn(CC)c2ccc(S(=O)(=O)N3CCc4ccccc4C3)cc2c1=O,IC50,[1],4070 nM (active)
same,IC50,[2],4280 nM (active)
O=C(c1ccc(CNc2c(N3CCCC3)c(=O)c2=O)cc1)N1CCC(c2ccccc2)CC1,CC50,[3],> 100000 nM (inconclusive)
NC(=O)CCN1CCN(C2Cc3cc(Cl)ccc3Sc3cc(F)ccc32)CC1 (stereo not given),Ki,[4],1580 nM (active)
same,Ki,[5],1580 nM (active)
Cc1ccc(N2C(=O)CC3(CC(c4ccccc4Cl)=NO3)C2=O)cc1 (stereo not given),EC50,[6],> 100000 nM (inactive)
COc1ccc(C2=Nn3c(nnc3-c3ccccc3OC)SC2)cc1OC,EC50,[7],< 100 nM (active)
same,EC50,[8],624 nM (active)
same,EC50,cells,494 nM (active)
same,EC50,[9],< 100 nM (active)
same,EC50,[10],700 nM (active)
same,EC50,[11],300 nM (active)
same,EC50,[12],551 nM (active)
same,IC50,[1],1150 nM (active)
same,IC50,[2],4220 nM (active)
C[C@@H]1O[C@@H](Oc2c(-c3cc(O)c(O)c(O)c3)oc3cc(O)cc(O)c3c2=O)[C@H](O)[C@H](O)[C@H]1O,EC50,[13],15800 nM (active)
same,EC50,[14],14000 nM (active)
same,IC50,[15],31000 nM (active)
same,AC50,[16],9800 nM (active)
same,IC50,[17],51400 nM (inactive)
